The values below come from patent US11998610B2, “Conjugates and methods of using the same” (Flagship Pioneering Innovations V, Inc., priority 2018, dated 2024).

Non-standard residues stand in square brackets, D forms with d. Residues, ends and D or L forms follow the SMILES beside them. *: point of attachment. PhAc = O=C(Cc1ccccc1)*

One series has as its system E. coli BL21(DE3). In words: Cell-based assay with ClbP with LCMS, ClbP negative strain. As to conditions: 10 μM compound, 37° C., 20 h. The procedure: (§1) This example is representative of the methods described in Example 97. ClbP was tested for its ability to activate compounds. […] Each of these three strains was struck out onto an appropriate solid media such as LB agar or BHI agar. The bacteria were then grown aerobically overnight at 37° C.
(§2) A single colony was isolated from the plate and inoculated into 10 mL LB. The liquid cultures were grown overnight aerobically at 37° C. with rocking on a nutator.
(§3) The saturated E. coli cultures were transferred into a biosafety cabinet. 5 μL of each culture was inoculated into fresh LB broth (200 μL total, 1:40 (v/v) dilution of the overnight culture), and the tested compound was added to a final concentration of 10 μM. To establish the native stability of the compound in media alone, the compound was also added to uninoculated media at a final concentration of 10 μM. Each compound was tested in duplicate with each strain or the media-alone incubation. The plate was sealed and incubated aerobically on a nutator at 37° C. for 20 h.
(§4) After 20 h, the reactions were stopped by addition of 200 μL acetonitrile. The contents of each well were mixed, and then the plate was centrifuged (4,000 rpm, 10 min). The plate was diluted serially to a final dilution of 1:100 first with Acetonitrile (10× dilution) and then with (4:1) Mobile Phase A-20 mM ammonium formate+water:Mobile Phase B-Isopropanol:Methanol:Water (4:4:2)+20 mM ammonium formate (10× dilution).
(§5) The amount of each remaining parent compound in each incubation was quantified by LC-MS analysis, with multiple-reaction monitoring targeting transitions specific to each parent compound.
(§6) The amount of compound present in the media-alone condition was normalized to 100%. The amount of parent compound present in the reaction with the ClbP-encoding E. coli (E. coli CFT073 ATCC 700928 and/or E. coli Nissle 1917) was compared to the amount present in the media-alone and expressed as a percent. Likewise, the amount of parent compound present in the reaction with the negative control E. coli BL21(DE3) was compared to the amount present in the media-alone and expressed as a percent.
(§7) In an ideal case, the amount of residual starting material in the reaction(s) with ClbP-encoding E. coli was <25% of the amount in the E. coli BL21(DE3) and media-alone conditions. In an acceptable case, the amount of residual starting material in the reaction(s) with ClbP-encoding E. coli was 25-75% of the amount in the E. coli BL21(DE3) and media-alone conditions. In a non-preferred case, the amount of residual starting material in the reaction(s) with ClbP-encoding E. coli was >75% of the amount in the E. coli BL21(DE3) and media-alone conditions.

A short description of series [1]: Stability of conjugates in Simulated Gastric Fluid (SGF). It counts as in vitro ADME. Conditions: simulated gastric fluid pH 1.6 with pepsin, 1 μM, 37° C. The protocol: Assay 1. Stability of conjugates in Simulated Gastric Fluid (SGF). This assay was used to assess the stability of a conjugate in a stomach. Medium was prepared by dissolving 2 g of sodium chloride in 0.6 L in ultrapure water (MilliQ®, Millipore Sigma, Darmstadt, Germany). The pH was adjusted to 1.6 with 1N hydrochloric acid, and the volume was then adjusted to 1 L with purified water. 60 mg FaSSIF powder (Biorelevant™, London, UK) were dissolved in 500 mL buffer (above). Pepsin was added (0.1 mg/mL) (Millipore Sigma, Darmstadt, Germany), and the solution was stirred. The resulting SGF media were used fresh for each experiment. Test compounds were dissolved in DMSO stock to 1 mM. An aliquot of the DMSO stock solution was removed and diluted in the SGF Media in 15 mL falcon tubes to generate a total compound concentration of 1 μM. A 1 mL aliquot was immediately removed and diluted once with 1 volume of acetonitrile for T0 timepoint. The mixture was sealed and mixed at 37° C. in an incubator. Aliquots (1 mL) were removed at regular intervals and immediately quenched by the addition of 1 volume of acetonitrile. The resulting samples were analyzed by LC/MS to determine degradation rates in SGF.

The nature of series [2]: In vitro Colonic Material Stability Assay. It counts as in vitro ADME. As to conditions: for Assay 3 (% Remaining at 24 h): colonic material slurry, anaerobic, 1 or 10 μM. The protocol: Assay 3 In vitro Colonic Material Stability Assay. This assay was used to assess the stability of an acylated active agent in a large intestine. All experiments were performed in an anaerobic chamber containing 90% nitrogen, 5% hydrogen and 5% carbon dioxide. Colonic material was resuspended as a slurry (15% w/v final concentration) in pre-reduced, anaerobically sterilized dilution blanks (Anaerobe Systems AS-908). The colonic material was then inoculated into 96 well plates containing YCFAC media (Anaerobe Systems AS-680) or other suitable media (6.7 μL slurry into 1 mL total media). Compounds or groups of compounds were added to each individual well to reach a final analyte concentration of 1 or 10 μM, and the material was mixed by pipetting. Sample was removed after set timepoints (0, 120, 240, 480, 1440, 2880 minutes after initiation of the assay), quenched with acetonitrile containing internal standard, and analyzed by LC/MS.

Series [3] is described as follows: Stability of conjugates in Simulated Intestinal Fluid (SIF). Conditions: simulated intestinal fluid pH 6.7 with pancreatin, 1 μM, 37° C. The series is classed as in vitro ADME. The procedure: Assay 2. Stability of conjugates in Simulated Intestinal Fluid (SIF). This assay was used to assess the stability of a conjugate in a small intestine. Phosphate buffer was prepared by dissolving 0.42 g of sodium hydroxide pellets and 3.95 g of monobasic sodium phosphate monohydrate and 6.19 g of sodium chloride in ultrapure water (MilliQ®, Millipore Sigma, Darmstadt, Germany). The pH was adjusted to 6.7 using aq. HCl and aq. NaOH, as necessary, and the solution was diluted with ultrapure water to produce 1 L of the pH 6.7 buffer. 112 mg FaSSIF powder (Biorelevant™, London, UK) was dissolved in 50 mL of the pH 6.7 buffer. 2 to 3 mL of the resulting solution were then added to 500 mg pancreatin (Millipore Sigma, Darmstadt, Germany). The resulting mixture was agitated by finger tapping the vessel containing the mixture until milky suspension formed. At this time, the remainder of the 50 mL FaSSiF/pH 6.7 buffer solution was added. The resulting suspension was flipped upside down 10 times to produce SIF, which was used fresh. Test compounds were dissolved in DMSO stock to 1 mM. An aliquot of the DMSO stock solution was removed and diluted in the SIF media in 15 mL falcon tubes to produce a mixture with a tested compound concentration of 1 μM. A 1 mL aliquot was immediately removed and diluted once with 1 volume of acetonitrile for T0 timepoint. The mixture was sealed and agitated at 37° C. in an incubator. Aliquots (1 mL) were removed at regular intervals and immediately quenched by the addition of 1 volume of acetonitrile. The resulting samples were analyzed by LC/MS to determine degradation rates

Series [4] has as its system E. coli CFT073 ATCC 700928 and/or E. coli Nissle 1917. In words: Cell-based assay with ClbP with LCMS, ClbP positive strain. As to conditions: ClbP-encoding E. coli, 10 μM compound, 37° C., 20 h. The protocol: as §1, §2, §3, §4, §5, §6, §7

Regarding `CCCCCCCC(=O)N[C@H](CC(N)=O)C(=O)NCCCC(=O)OC` [Example 43, Methyl (R)-4-(4-amino-2-octanamido-4-oxobutanamido)butanoate], the “% Remaining in ClbP Negative Relative to Media-Only” value with E. coli BL21(DE3) is “− (>75% compound remaining in the 20 μM WT ClbP reaction relative to the no-enzyme control)”. The “Assay 1 (SGF) (% Remaining @ 1 hours)” value in series [1] is on record as “B (25-75% of the tested compound remaining)”. Moreover, in series [2], the “Assay 3 (% Remaining at 24 h)” value was “B (25-75% of the tested compound remaining)”. Moreover, in series [3], the “Assay 2 (SIF) (% @ Remaining 4 hours)” value is given as “B (25-75% of the tested compound remaining)”. Moreover, the “% Remaining in ClbP Positve Relative to Media-Only” value in series [4] is “− (>75% compound remaining in the 20 μM WT ClbP reaction relative to the no-enzyme control)”.

Take `COC(=O)[C@H](C)NC(=O)[C@@H](CC(N)=O)NC(=O)Cc1ccccc1` [Example 14, Methyl (2-phenylacetyl)-D-asparaginyl-L-alaninate] (PhAc-[dN]-Ala-OMe): the “% Remaining in ClbP Negative Relative to Media-Only” value with E. coli BL21(DE3) is recorded as “− (>75% compound remaining in the 20 μM WT ClbP reaction relative to the no-enzyme control)”. The “Assay 1 (SGF) (% Remaining @ 1 hours)” value in series [1] was “C (>75% of the tested compound remaining)”. Moreover, in series [2], the “Assay 3 (% Remaining at 24 h)” value is “C (>75% of the tested compound remaining)”. Moreover, the “Assay 2 (SIF) (% @ Remaining 4 hours)” value in series [3] is “A (<25% of the tested compound remaining)”. The “% Remaining in ClbP Positve Relative to Media-Only” value in series [4] was “+ (between 25-75% compound remaining in the 20 μM WT ClbP reaction relative to the no-enzyme control)”.

Regarding `CCCCCCCC(=O)N[C@H](CC(N)=O)C(=O)N[C@@H](C)CCC(=O)Oc1ccc(Br)cc1` [Example 47, 4-bromophenyl (S)-4-((R)-4-amino-2-octanamido-4-oxobutanamido)pentanoate], in the series on E. coli BL21(DE3), the “% Remaining in ClbP Negative Relative to Media-Only” value is recorded as “− (>75% compound remaining in the 20 μM WT ClbP reaction relative to the no-enzyme control)”. Further, the “Assay 1 (SGF) (% Remaining @ 1 hours)” value in series [1] was “C (>75% of the tested compound remaining)”. In series [2], the “Assay 3 (% Remaining at 24 h)” value is given as “A (<25% of the tested compound remaining)”. Moreover, in series [3], the “Assay 2 (SIF) (% @ Remaining 4 hours)” value is given as “A (<25% of the tested compound remaining)”. Also, the “% Remaining in ClbP Positve Relative to Media-Only” value in series [4] was “− (>75% compound remaining in the 20 μM WT ClbP reaction relative to the no-enzyme control)”.

With `COC(=O)[C@H](C)NC(=O)[C@@H](CC(N)=O)NC(=O)c1ccccc1O` [Example 16, Methyl (2-hydroxybenzoyl)-D-asparaginyl-L-alaninate], the “% Remaining in ClbP Negative Relative to Media-Only” value in the series on E. coli BL21(DE3) is listed as “+ (between 25-75% compound remaining in the 20 μM WT ClbP reaction relative to the no-enzyme control)”. For the same compound, the “Assay 1 (SGF) (% Remaining @ 1 hours)” value in series [1] is listed as “C (>75% of the tested compound remaining)”. For the same compound, the “Assay 3 (% Remaining at 24 h)” value in series [2] is on record as “B (25-75% of the tested compound remaining)”. In addition, in series [3], the “Assay 2 (SIF) (% @ Remaining 4 hours)” value is on record as “A (<25% of the tested compound remaining)”. For the same compound, in series [4], the “% Remaining in ClbP Positve Relative to Media-Only” value is “+ (between 25-75% compound remaining in the 20 μM WT ClbP reaction relative to the no-enzyme control)”.

`CCCCCCCCCCCCCC(=O)N[C@H](CC(N)=O)C(=O)N[C@@H](C)CCC(=O)Oc1ccccc1` [Example 66, phenyl (S)-4-((R)-4-amino-4-oxo-2-tetradecanamidobutanamido)pentanoate]: in the series with E. coli BL21(DE3), the “% Remaining in ClbP Negative Relative to Media-Only” value is reported as “++ (<25% compound remaining in the 20 μM WT ClbP reaction relative to the control)”. In addition, in series [1], the “Assay 1 (SGF) (% Remaining @ 1 hours)” value is reported as “C (>75% of the tested compound remaining)”. The “Assay 3 (% Remaining at 24 h)” value in series [2] was “A (<25% of the tested compound remaining)”. In addition, the “Selective delivery to the colon (conclusion from Table 2)” value in series [2] (from SGF, SIF and colonic material stability) is recorded as “can be selectively delivered to the colon”. Further, in series [3], the “Assay 2 (SIF) (% @ Remaining 4 hours)” value is “B (25-75% of the tested compound remaining)”. The “% Remaining in ClbP Positve Relative to Media-Only” value in series [4] was “+ (between 25-75% compound remaining in the 20 μM WT ClbP reaction relative to the no-enzyme control)”.

As to `CCCCCCCC(=O)N[C@H](CC(N)=O)C(=O)NCCCC(=O)Oc1ccc2c(C)cc(=O)oc2c1` [Example 67, 4-methyl-2-oxo-2H-chromen-7-yl (R)-4-(4-amino-2-octanamido-4-oxobutanamido)butanoate], the “Assay 1 (SGF) (% Remaining @ 1 hours)” value in series [1] is “C (>75% of the tested compound remaining)”. Further, the “Assay 2 (SIF) (% @ Remaining 4 hours)” value in series [3] is reported as “A (<25% of the tested compound remaining)”.

Turning to `CCCCCCCC(=O)N[C@H](CC(N)=O)C(=O)NCCNC(=O)n1cc(F)c(=O)[nH]c1=O` [Example 55, (R)—N1-(2-(5-fluoro-2,4-dioxo-1,2,3,4-tetrahydropyrimidine-1-carboxamido)ethyl)-2-octanamidosuccinamide], the “Assay 1 (SGF) (% Remaining @ 1 hours)” value in series [1] is recorded as “C (>75% of the tested compound remaining)”. In addition, in series [2], the “Assay 3 (% Remaining at 24 h)” value was “A (<25% of the tested compound remaining)”. Also, the “Assay 2 (SIF) (% @ Remaining 4 hours)” value in series [3] is listed as “A (<25% of the tested compound remaining)”.

For the compound `CCCCCCCC(=O)N[C@H](CC(N)=O)C(=O)NCCNC(=O)Oc1ccc2c(C)cc(=O)oc2c1` [Example 69, 4-methyl-2-oxo-2H-chromen-7-yl (R)-(2-(4-amino-2-octanamido-4-oxobutanamido)ethyl)carbamate], the “Assay 1 (SGF) (% Remaining @ 1 hours)” value in series [1] is “C (>75% of the tested compound remaining)”. In addition, the “Assay 3 (% Remaining at 24 h)” value in series [2] is “A (<25% of the tested compound remaining)”. Moreover, the “Assay 2 (SIF) (% @ Remaining 4 hours)” value in series [3] is “A (<25% of the tested compound remaining)”.
